# Source: US20250214942A1, “INHIBITORS OF RECEPTOR INTERACTING PROTEIN KINASE I FOR THE TREATMENT OF DISEASE” (Board of Regents, The University of Texas System, priority 2019, published 2025)
# Test system: human monocytic cell line U937
# Test: Human U937 cellular necroptosis assay (TNFalpha + z-VAD-FMK, Cell Titer-Glo viability)
# Format: cell-based
# Conditions: Homo sapiens, U-937, 22 h, U937 cells, 25 ng/mL human TNFalpha + 25 μM z-VAD-FMK, read-out: hU937 Avg IC50
# In short: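 Readout is CellTiter-Glo 2.0 luminescence after 22 h at 37° C with compound, in cells triggered by human TNFalpha (25 ng/mL) and z-VAD-FMK (25 μM) in phenol red-free RPMI/10% FBS. Values are run-averaged IC50s from a four-parameter logistic curve.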
row,Compound,IC50 [nM]
1,"N#Cc1ccc(OCC23CC(C(=O)N4N=CCC4c4cccc(Cl)c4Cl)(C2)C3)nc1 (stereo not shown) [Example 290, 6-((3-(5-(2,3-dichlorophenyl)-4,5-dihydro-1H-pyrazole-1-carbonyl)bicyclo[1.1.1]pentan-1-yl)methoxy)nicotinonitrile]",445
2,"N#Cc1cnc(OCC23CC(C(=O)N4N=CCC4c4ccc(C(F)(F)F)cc4)(C2)C3)cn1 (stereo not shown) [Example 312, 5-((3-(5-(4-(trifluoromethyl)-phenyl)-4,5-dihydro-1H-pyrazole-1-carbonyl)bicyclo-[1.1.1]pentan-1-yl)methoxy)-pyrazine-2-carbonitrile]",62
3,"Cc1cc(F)c(C2CC=NN2C(=O)C23CC(COc4cnc(C#N)cn4)(C2)C3)c(F)c1 (stereo not shown) [Example 304, 5-((3-(5-(2,6-difluoro-4-methylphenyl)-4,5-dihydro-1H-pyrazole-1-carbonyl)-bicyclo[1.1.1]pentan-1-yl)-methoxy)pyrazine-2-carbonitrile]",6
4,"COc1ccc(C(O)C23CC(C(=O)N4N=CCC4c4cc(F)cc(F)c4)(C2)C3)cc1 (stereo not shown) [Example 231, (5-(3,5-difluorophenyl)-4,5-dihydro-1H-pyrazol-1-yl)(3-(hydroxy(4-methoxyphenyl)-methyl)bicyclo[1.1.1]pentan-1-yl)methanone]",3040
5,"N#Cc1ccc2c(cnn2CC23CC(C(=O)N4N=CCC4c4ccc(F)cc4F)(C2)C3)c1 (stereo not shown) [Example 240, 1-((3-(5-(2,4-difluorophenyl)-4,5-dihydro-1H-pyrazole-1-carbonyl)bicyclo[1.1.1]pentan-1-yl)methyl)-1H-indazole-5-carbonitrile]",13
6,"N#Cc1cnc(OCC23CC(C(=O)N4N=CCC4c4ccc(F)c(CO)c4)(C2)C3)cn1 (stereo not shown) [Example 207, 5-((3-(5-(4-Fluoro-3-(hydroxymethyl)phenyl)-4,5-dihydro-1H-pyrazole-1-carbonyl)bicyclo[1.1.1]pentan-1-yl)methoxy)pyrazine-2-carbonitrile]",633
7,"Cc1ccc(C2CC=NN2C(=O)C23CC(COc4cnc(C#N)cn4)(C2)C3)c(F)c1 (stereo not shown) [Example 267, 5-((3-(5-(2-fluoro-4-methyl-phenyl)-4,5-dihydro-1H-pyrazole-1-carbonyl)bicyclo-[1.1.1]pentan-1-yl)methoxy)-pyrazine-2-carbonitrile]",3.8
8,"Cc1ccc(C2CC=NN2C(=O)C23CC(COc4cnc(C#N)cn4)(C2)C3)nc1 (stereo not shown) [Example 278, 5-((3-(5-(5-methylpyridin-2-yl)-4,5-dihydro-1H-pyrazole-1-carbonyl)bicyclo[1.1.1]-pentan-1-yl)methoxy)pyrazine-2-carbonitrile]",97
9,"Cc1nc(OCC23CC(C(=O)N4N=CCC4c4cnc(C#N)cn4)(C2)C3)ccc1F (stereo not shown) [Example 313, 5-(1-(3-(((5-fluoro-6-methylpyridin-2-yl)oxy)-methyl)bicyclo[1.1.1]pentane-1-carbonyl)-4,5-dihydro-1H-pyrazol-5-yl)pyrazine-2-carbonitrile]",251
10,"N#Cc1cnc(OCC23CC(C(=O)NCc4cccc(F)c4F)(C2)C3)cn1 [Example 296, 3-(((5-cyanopyrazin-2-yl)-oxy)methyl)-N-(2,3-difluoro-benzyl)bicyclo[1.1.1]pentane-1-carboxamide]",5850
11,"N#Cc1ccc2c(cnn2CC23CC(C(=O)N4N=CCC4c4ccc(C#N)s4)(C2)C3)c1 (stereo not shown) [Example 251, 1-((3-(5-(5-cyanothiophen-2-yl)-4,5-dihydro-1H-pyrazole-1-carbonyl)bicyclo[1.1.1]-pentan-1-yl)methyl)-1H-indazole-5-carbonitrile]",397
12,"Cc1cc(F)c(C2CC=NN2C(=O)C23CC(COc4cnc(C#N)cn4)(C2)C3)cc1F (stereo not shown) [Example 195, 5-((3-(5-(2,5-Difluoro-4-methylphenyl)-4,5-dihydro-1H-pyrazole-1-carbonyl)bicyclo[1.1.1]pentan-1-yl)methoxy) pyrazine-2-carbonitrile]",1.5

# Molecular target: RIPK1 (Homo sapiens (Human), UniProt Q13546)
# Sequence (Q13546 1-327): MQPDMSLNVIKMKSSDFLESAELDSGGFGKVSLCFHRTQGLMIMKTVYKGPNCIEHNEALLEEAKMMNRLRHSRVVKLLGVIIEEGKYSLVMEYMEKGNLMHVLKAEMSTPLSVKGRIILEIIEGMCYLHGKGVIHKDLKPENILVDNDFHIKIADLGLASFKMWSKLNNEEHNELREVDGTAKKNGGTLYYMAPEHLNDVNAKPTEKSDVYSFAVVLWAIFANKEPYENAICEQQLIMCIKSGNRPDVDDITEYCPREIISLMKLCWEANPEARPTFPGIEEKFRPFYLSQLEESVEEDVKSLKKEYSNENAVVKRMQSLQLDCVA
# Test: ADP-Glo kinase assay (RIPK1 activity, conversion of ATP to ADP)
# Format: biochemical
# Conditions: 5 nM RIPK1, 50 μM ATP, 6 h reaction; footnote symbol (a); read-out: RIPK1 Enzyme Avg IC50
# Experimental: In order to measure RIPK1 activity the ADP-Glo kinase assay (Promega, Catalog #V7002) was used to measure the conversion of ATP to ADP. This enzymatic assay was performed in a 384-well white, Optiplate (Perkin Elmer, Catalog #6007299) with assay buffer consisting of 50 mM HEPES pH 7.5 (Gibco, Catalog #15630-080), 50 mM NaCl (Teknova, Catalog #S0252), 30 mM MgCl2 (Ambion, Catalog #AM9530G), 1 mM DTT (Santa Cruz Biotechnology, Catalog #sc-29089), 0.05% BSA (Sigma, Catalog #A3059-50G) and 0.02% CHAPS (Sigma, Catalog #C5070-5G). Stock solutions of the test compounds were prepared in 100% DMSO (Sigma, Catalog #D2650) and serially diluted 1:3 using 100% DMSO. Compounds were additionally diluted 1:40 in assay buffer, and 2 μL/well were transferred to the assay plate. 4 μL/well (final concentration of 5 nM) of RIPK1 protein (SignalChem, Catalog #R07-1IG-05) diluted in assay buffer and added to the assay plate followed by a 10 minute preincutation at rt. 4 μL/well of ATP (Promega, Catalog #V7002) (final concentration of 50 μM) diluted in assay buffer were then added to the assay plate followed by a 6 h reaction time. Final concentrations of RIPK1 and ATP refer to a 10 μL volume. Luminescence was measured using a BioTek Synergy™ NEO plate reader. IC50 values were calculated using a four-parameter logistic curve fit using Genedata Screener software.
row,Compound,IC50 [nM]
1,"Cc1cccc(C2CCCN2C(=O)C23CC(O)(C2)C3)c1 (stereo not shown) [Example 120, (3-hydroxybicyclo[1.1.1]-pentan-1-yl)(2-(m-tolyl)-pyrrolidin-1-yl)methanone]",> 50000
2,"C[C@H](NC(=O)C12CC(CO)(C1)C2)c1cc(F)cc(F)c1 [Example 90, (S)-N-(1-(3,5-difluoro-phenyl)ethyl)-3-(hydroxymethyl)-bicyclo[1.1.1]pentane-1-carboxamide]",> 50000
3,"Cc1cccc(C2CCCN2C(=O)C23CC(Nc4nccc(C#N)n4)(C2)C3)c1 (stereo not shown) [Example 105, 2-((3-(2-(m-tolyl)pyrrolidine-1-carbonyl)bicyclo[1.1.1]-pentan-1-yl)amino)-pyrimidine-4-carbonitrile]",> 50000
4,"COC(=O)C12CC(C(=O)N[C@@H](C)c3cc(F)cc(F)c3)(C1)C2 [Example 115, methyl (S)-3-((1-(3,5-difluorophenyl)ethyl)-carbamoyl)bicyclo[1.1.1]-pentane-1-carboxylate]",> 50000

# Same assay, conditions: 5 nM RIPK1, 50 μM ATP, 6 h reaction; read-out: RIPK1 Enzyme Avg IC50
row,Compound,IC50 [nM]
1,"N#Cc1ccc2nn(CC34CC(C(=O)N5N=CCC5c5cc(F)cc(F)c5)(C3)C4)cc2n1 (stereo not shown) [Example 180, 2-((3-(5-(3,5-difluorophenyl)-4,5-dihydro-1H-pyrazole-1-carbonyl)bicyclo[1.1.1]-pentan-1-yl)methyl)-2H-pyrazolo[4,3-b]pyridine-5-carbonitrile]",392
2,"Cc1cccc(C2CCCN2C(=O)C23CC(C2)C3)c1 (stereo not shown) [Example 113, bicyclo[1.1.1]pentan-1-yl(2-(m-tolyl)pyrrolidin-1-yl)methanone]",4230
3,"C[C@H](NC(=O)C12CC(COc3cc(C#N)ncn3)(C1)C2)c1cc(F)cc(F)c1 [Example 102, (S)-3-(((6-cyanopyrimidin-4-yl)oxy)methyl)-N-(1-(3,5-difluorophenyl)ethyl)-bicyclo[1.1.1]pentane-1-carboxamide]",2000
4,"COCC12CC(C(=O)N3CC(F)CC3c3cccc(F)c3)(C1)C2 (stereo not shown) [Example 35, (4-Fluoro-2-(3-fluorophenyl)pyrrolidin-1-yl)(3-(methoxymethyl)-bicyclo[1.1.1]pentan-1-yl)methanone]",4630
5,"O=C(N1N=CCC1c1cc(F)cc(F)c1)C12CC(Cc3nnn[nH]3)(C1)C2 (stereo not shown) [Example 19, (3-((1H-tetrazol-5-yl)methyl)bicyclo[1.1.1]pentan-1-yl)(5-(3,5-difluorophenyl)-4,5-dihydro-1H-pyrazol-1-yl)methanone]",363
6,"O=C(N1N=CCC1c1cc(F)cc(F)c1)C12CC(CN3C(=O)C4(CC4)c4ccccc43)(C1)C2 (stereo not shown) [Example 125, 1′-((3-(5-(3,5-difluorophenyl)-4,5-dihydro-1H-pyrazole-1-carbonyl)-bicyclo[1.1.1]pentan-1-yl)methyl)-spiro[cyclopropane-1,3′-indolin]-2′-one]",2800
7,"N#Cc1ccn(CC23CC(C(=O)N4CC(F)CC4c4cccc(F)c4)(C2)C3)c(=O)c1 (stereo not shown) [Example 36, 1-((3-(4-Fluoro-2-(3-fluorophenyl)pyrrolidine-1-carbonyl)bicyclo[1.1.1]pentan-1-yl)methyl)-2-oxo-1,2-dihydropyridine-4-carbonitrile]",19300
8,"Cc1nnc(CC23CC(C(=O)N4N=CCC4c4cc(F)cc(F)c4)(C2)C3)o1 (stereo not shown) [Example 20, (5-(3,5-Difluorophenyl)-4,5-dihydro-1H-pyrazol-1-yl)(3-((5-methyl-1,3,4-oxadiazol-2-yl)methyl)bicyclo[1.1.1]pentan-1-yl)methanone]",1110
9,N#Cc1ccc2c(cnn2CC23CC(C(=O)N4N=CCC4c4cc(F)cc(F)c4)(C2)C3)n1 (stereo not shown) [Example 179],9.6
